# Assay results: patent US7745492B2, “Carboxamido opioid compounds” (Janssen Pharmaceutical, priority 2004, dated 2010)
# pEC50, pIC50, pKi: −log10 of the molar value.
# Assays:
# mu opioid receptor = molecular target: T1, mu opioid receptor (Rattus norvegicus, UniProt P33535); assay: Rat brain mu opioid receptor binding assay ([3H]DAMGO); settings: rat forebrain membranes, 25° C.
# T1 construct: from tissue; host or cells: rat forebrain membrane (particulate) preparation
# Description: (§1) Rat Brain Mu and Delta Opioid Receptor Binding Assay
# (§2) Male, Wistar rats (150-250 g, VAF, Charles River, Kingston, N.Y.) were killed by cervical dislocation and their brains removed and placed immediately in ice cold Tris HCl buffer (50 mM, pH 7.4). The forebrains were separated from the remainder of the brain by a coronal transection, beginning dorsally at the colliculi and passing ventrally through the midbrain-pontine junction. After dissection, the forebrains were homogenized in Tris buffer in a Teflon®-glass homogenizer. The homogenate was diluted to a concentration of 1 g of forebrain tissue per 100 mL Tris buffer and centrifuged at 39,000×G for 10 min. The pellet was resuspended in the same volume of Tris buffer with several brief pulses from a Polytron homogenizer. This particulate preparation was used for the opioid receptor binding assays. Following incubation with the mu opioid selective peptide ligand [^3H]DAMGO or the delta opioid selective ligand [^3H]DPDPE at 25° C., the tube contents were filtered through Whatman GF/B filter sheets on a Brandel cell harvester. The tubes and filters were rinsed three times with 4 mL of 10 mM HEPES (pH 7.4) and the radioactivity associated with the filter circles determined using Formula 989 scintillation fluid (New England Nuclear, Boston, Mass.) in a scintillation counter.
# (§3) The data were used to calculate a Ki value, using GraphPad Prism.
# delta opioid receptor = molecular target: T2, delta opioid receptor (Rattus norvegicus, UniProt P33533); assay: Rat brain delta opioid receptor binding assay ([3H]DPDPE); settings: rat forebrain membranes, 25° C.
# T2 construct: from tissue; host or cells: rat forebrain membrane (particulate) preparation
# Description: as §1
# as §2, with “Following incubation with the mu opioid selective peptide ligand [^3H]DAMGO or the delta opioid selective ligand [^3H]DPDPE at 25° C., the tube contents were filtered through Whatman GF/B filter sheets on a Brandel cell harvester.” left out
# as §3
# Human mu opioid = molecular target: T3, Human mu opioid (Homo sapiens, UniProt P35372); assay: [35S]GTPγS binding assay in human mu opioid-CHO cell membranes; assay type: biochemical
# T3 construct: host or cells: CHO cell membranes
# Description: [^35S]GTPγS Binding Assay in Human mu opioid-CHO Cell Membranes
# Human mu-CHO cell membranes were purchased from Receptor Biology, Inc. (Baltimore, Md.). About 10 mg/ml of membrane protein was suspended in 10 mM TRIS-HCl, pH 7.2, 2 mM EDTA, 10% sucrose.
# Membranes were maintained at 4-8° C. 1 ml of membranes was added into 15 ml cold assay buffer, containing 50 mM HEPES, pH 7.6, 5 mM MgCl2, 100 mM NaCl, 1 mM DTT and 1 mM EDTA. The membrane suspension was homogenized with a Polytron 2 times and centrifuged at 3000 rpm for 10 min. The supernatant was then centrifuged at 18,000 rpm for 20 min. The pellet was resuspended in 10 ml assay buffer with a Polytron.
# The pellet membranes (20 μg/ml) were preincubated with Scintillation Proximity Assay beads (SPA, 10 mg/ml) at 25° C. for 45 min in the assay buffer. The SPA beads (5 mg/ml) coupled with membranes (10 μg/ml) were then incubated with 0.5 nM [^35S]GTPγS in the same HEPES buffer containing 50 μM GDP in total volume of 200 μl. A range of concentrations of receptor agonists were used to stimulate [^35S]GTPγS binding. The basal binding was tested in the absence of agonist and non-specific binding was tested in the presence of 10 μM unlabeled GTPγS. Radioactivity was quantified on a Packard TopCount.
# Data were Calculated as Follows: % of basal=(stimulated−non-specific)*100/(basal−non specific) % Inhibition=(% Basal of 1 μM DAMGO−% Basal of compound)*100/(% Basal of 1 μM DAMGO−100)
# EC50 values were calculated using the Prism program.
# male Sprague-Dawley rats = assay: Rat CFA radiant heat model of inflammatory pain; assay type: in vivo; settings: dosed orally 24 h after intraplantar CFA
# Description: Rat CFA Radiant Heat Model of Inflammatory Pain
# Intraplantar injection of Complete Freund's Adjuvant (CFA) in rodents results in a strong, long-lasting inflammatory reaction, characterized by a chronic and pronounced hyperalgesia to both thermal and mechanical stimuli. These effects peak between 24-72 h following injection, and can last for several days to a few weeks. To assess the ability of compounds to reverse thermal hyperalgesia, male Sprague-Dawley rats (200-350 g) were given an intraplantar injection of CFA (1:1 CFA:saline, 100 μL) into their left hindpaw. Following a 24-h incubation period, response latencies on the Radiant Heat Paw Stimulator (RH) were obtained and compared to baseline (pre-CFA) latencies. The RH device automatically registered lifting of the paw from the surface of the glass. […] Following the post CFA latency assessment, rats were dosed orally (2.5 mL/kg) with test compound or vehicle (hydroxypropylmethylcellulose, HPMC). Percent reversal of hyperalgesia was calculated for each animal as (Treatment Response−postCFA Response)/(preCFA Response−postCFA Response)×100. Therefore, a return to normal pre-CFA thresholds was defined as 100% efficacy, whereas no change from post-CFA thresholds was 0% efficacy. Average % reversal of hyperalgesia was then calculated for each treatment group (n=6-8 rats/group). […]
# [1] = system: spinal nerve ligated rats; assay: Investigation of tolerance development to antiallodynic effect; assay type: in vivo, rat; settings: dosing for five days, evaluated days one and five
# Description: Investigation of Tolerance Development
# The development of tolerance to the analgesic effect of mu opioid compounds is well known. The development of tolerance to the antiallodynic effect of the Compound 3 was investigated by administering the compound to spinal nerve ligated rats for five days. The antiallodynic effect of the compound was evaluated on days one and five.
# [2] = Metabolic stability in mouse liver microsomes; assay type: in vitro ADME; settings: 10 min incubation
# Description: (§4) The metabolic stability of Compound 3 was investigated using several approaches. The compound was incubated with liver microsomes from mouse, rat, dog and human and the percent of compound remaining after ten min quantified. The compound was metabolically robust in all species tested.
# [3] = Metabolic stability in dog liver microsomes; assay type: in vitro ADME; settings: 10 min incubation
# Description: as §4
# [4] = molecular target: recombinant human P450 2C19 (Homo sapiens, UniProt P33261); assay: Recombinant human P450 isoform inhibition, 2C19; assay type: in vitro ADME
# Description: In a study using recombinant human P450 isoforms, the compound was only a weak inhibitor (IC50>10 μM) of all isoforms tested, 3A4, 2D6, 2C9, 2C19, and 1A2.
# T3 sequence (P35372 whole entry): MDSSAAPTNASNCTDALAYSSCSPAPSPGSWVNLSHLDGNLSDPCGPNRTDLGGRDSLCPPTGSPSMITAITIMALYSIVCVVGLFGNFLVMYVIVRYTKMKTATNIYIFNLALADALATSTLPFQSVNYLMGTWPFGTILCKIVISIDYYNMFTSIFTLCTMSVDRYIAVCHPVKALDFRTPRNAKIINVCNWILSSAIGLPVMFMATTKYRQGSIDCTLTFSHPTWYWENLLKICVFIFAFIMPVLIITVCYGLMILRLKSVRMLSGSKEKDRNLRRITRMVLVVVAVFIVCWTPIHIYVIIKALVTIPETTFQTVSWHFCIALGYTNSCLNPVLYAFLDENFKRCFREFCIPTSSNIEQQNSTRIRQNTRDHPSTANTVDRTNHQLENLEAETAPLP
# T1 sequence (P33535 whole entry): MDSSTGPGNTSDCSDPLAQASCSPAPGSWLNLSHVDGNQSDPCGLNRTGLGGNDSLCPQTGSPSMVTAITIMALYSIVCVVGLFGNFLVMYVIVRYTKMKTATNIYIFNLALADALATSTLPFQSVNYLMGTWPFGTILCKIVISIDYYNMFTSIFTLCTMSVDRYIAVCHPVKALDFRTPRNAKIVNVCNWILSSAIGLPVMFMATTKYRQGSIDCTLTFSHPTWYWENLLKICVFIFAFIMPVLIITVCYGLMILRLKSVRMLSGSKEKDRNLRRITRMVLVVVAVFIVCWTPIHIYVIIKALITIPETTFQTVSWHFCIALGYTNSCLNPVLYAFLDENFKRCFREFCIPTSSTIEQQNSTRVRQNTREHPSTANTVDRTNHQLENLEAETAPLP
# T2 sequence (P33533 whole entry): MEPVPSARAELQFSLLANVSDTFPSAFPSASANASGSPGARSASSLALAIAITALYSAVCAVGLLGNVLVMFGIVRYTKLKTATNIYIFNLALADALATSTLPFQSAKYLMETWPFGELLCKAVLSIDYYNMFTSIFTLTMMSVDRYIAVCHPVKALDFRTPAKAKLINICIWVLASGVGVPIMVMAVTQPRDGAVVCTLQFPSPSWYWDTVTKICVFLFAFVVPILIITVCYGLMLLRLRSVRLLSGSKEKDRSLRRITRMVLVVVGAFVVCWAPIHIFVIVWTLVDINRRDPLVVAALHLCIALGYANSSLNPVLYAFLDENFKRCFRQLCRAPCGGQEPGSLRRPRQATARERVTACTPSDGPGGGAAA
# recombinant human P450 2C19, sequence (P33261 whole entry, canonical isoform): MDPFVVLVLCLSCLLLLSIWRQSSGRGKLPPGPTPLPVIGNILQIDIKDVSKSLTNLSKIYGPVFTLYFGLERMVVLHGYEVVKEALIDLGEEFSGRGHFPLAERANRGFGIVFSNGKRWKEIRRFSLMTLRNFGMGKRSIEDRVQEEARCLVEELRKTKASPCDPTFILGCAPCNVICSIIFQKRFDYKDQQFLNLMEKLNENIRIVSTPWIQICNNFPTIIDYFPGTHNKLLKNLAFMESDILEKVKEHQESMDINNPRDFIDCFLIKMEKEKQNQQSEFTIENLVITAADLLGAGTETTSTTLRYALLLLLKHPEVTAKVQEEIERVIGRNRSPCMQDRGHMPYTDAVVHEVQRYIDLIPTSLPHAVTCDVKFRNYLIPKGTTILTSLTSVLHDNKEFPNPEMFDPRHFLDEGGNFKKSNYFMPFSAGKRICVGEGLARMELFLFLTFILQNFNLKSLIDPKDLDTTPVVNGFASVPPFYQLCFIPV
smiles,measurement,setting,value
"CN(C)C[C@H]1CCCC[C@]1(O)c1cccc(C(N)=O)c1 (single isomer, unassigned) [Cpd 3]",pKi,mu opioid receptor,7.81
same,pKi,delta opioid receptor,5.50
same,pEC50,Human mu opioid,6.78
same,Mu opioid GTPγS relative efficacy,Human mu opioid,75%
same,Antihyperalgesic effect (reversal of thermal hyperalgesia),male Sprague-Dawley rats,antihyperalgesic
same,Development of tolerance to the antiallodynic effect,[1],did not diminish the antiallodynic effect
same,% remaining after 10 min,[2],88.2%
same,% remaining after 10 min,[3],92.6%
same,pIC50,[4],< 5.00
